Measurements taken from PMC3004370, “PI3Kα Inhibitors That Inhibit Metastasis” (Oncotarget, 2010).

Experiments:
[1] = molecular target: T1, p110α (Homo sapiens, UniProt P42336); assay: Biochemical PI3K inhibition assay, p110α
T1 construct: His-tag; made in house; host or cells: Sf9 insect cells (baculovirus)
Experimental: PIK3CD was generously provided by Novartis Pharmaceuticals. […] Sf9 cells were lysed in a buffer containing 50 mM sodium phosphate, pH 8.0, 400 mM NaCl, 5% glycerol, 1% Triton X-100, 10 mM 2-mercaptoethanol, 1 mM orthovanadate, 10 mM imidazole, and sonicated on ice for 1 minute. Proteins were purified by adding Ni-NTA Superflow beads (Qiagen, Valencia, CA, USA) to the lysate and subsequent rolling for 30 min at 4°C. Beads were washed twice with 50 mM phosphate buffer, pH 8.0, 0.5 M NaCl, 50 mM Imidazole, 2 mM DTT and eluted in the same buffer but with 200 mM imidazole. Purified PI3K's were mixed 1:1 with glycerol and stored at -20°C.
J-series inhibitors were dissolved, serial diluted in DMSO and deposited into 96 well plates at a final DMSO concentration of 1%. We used a novel assay to determine their potency and selectivity. […] Reactions were timed after the addition of 10 μM ATP with 40 μCi/ml γ-32P-ATP (PerkinElmer, Waltham, MA, USA) and 2 mM MgCl2 (all final concentrations). The reactions were terminated after two hours by the addition of 2 N HCl and the lipids extracted with 1:1 MetOH/Chloroform. Radio-labeled phosphatidyl-inositol-3-phosphate in the extracted organic fraction was quantified after the addition of Microscint O (PerkinElmer) using a TopCount 96 well plate scintillation counter (PerkinElmer). IC50 concentrations and inhibition curves were calculated using Prism 5 (GraphPad Software, La Jolla, CA).

[2] = molecular target: T2, mTOR (Homo sapiens, UniProt P42345); assay: Panel of 273 kinases, mTOR; type: biochemical
T2 construct: purchased Millipore (KinaseProfiler service)
Experimental: The compounds were also tested for their capacity to inhibit two common mutant forms of PI3Kα – E545K and H1047R [2, 33]. None of the compounds discriminated between the wild-type (wt) and mutant forms of the enzyme (data not shown). Finally, we also tested one of the compounds (J124, chosen for reasons discussed later) against a panel of 273 kinases.

[3] = molecular target: T3, p110β (Homo sapiens, UniProt P42338); assay: Biochemical PI3K inhibition assay, p110β
T3 construct: His-tag; made in house; host or cells: Sf9 insect cells (baculovirus)
From the text: cDNA clones of PIK3CA, PIK3CB and PIK3CG were obtained from Origene (Rockville, MD, USA). PIK3CD was generously provided by Novartis Pharmaceuticals. The cDNA clones were sub-cloned into pFastBac His-Tag (Invitrogen, Carlsbad, CA, USA) and baculovirus clones were generated by the Bac-to-Bac expression system (Invitrogen). p110α, p110β and p110δ were co-expressed in Sf9 insect cells (Invitrogen) with a nSH2-iSH2 fragment of the regulatory subunit p85 comprising AA residues 322 to 600 [4]. p110γ was expressed without a regulatory subunit. Sf9 cells were lysed in a buffer containing 50 mM sodium phosphate, pH 8.0, 400 mM NaCl, 5% glycerol, 1% Triton X-100, 10 mM 2-mercaptoethanol, 1 mM orthovanadate, 10 mM imidazole, and sonicated on ice for 1 minute. Proteins were purified by adding Ni-NTA Superflow beads (Qiagen, Valencia, CA, USA) to the lysate and subsequent rolling for 30 min at 4°C. Beads were washed twice with 50 mM phosphate buffer, pH 8.0, 0.5 M NaCl, 50 mM Imidazole, 2 mM DTT and eluted in the same buffer but with 200 mM imidazole. Purified PI3K's were mixed 1:1 with glycerol and stored at -20°C.
J-series inhibitors were dissolved, serial diluted in DMSO and deposited into 96 well plates at a final DMSO concentration of 1%. We used a novel assay to determine their potency and selectivity. In brief, micelles of 2.5 μg L-a-Phosphatidylinositol and 2.5 μg 1,2-Diacyl-sn-glycero-3-phospho-L-serine were formed by sonication, mixed with the individual PI3K isoforms and added to the drug dilutions in a reaction buffer containing 10 mM HEPES, 25 mM NaCl, 0.125 μg/μl BSA, and 2 mM BME (final concentrations). Reactions were timed after the addition of 10 μM ATP with 40 μCi/ml γ-32P-ATP (PerkinElmer, Waltham, MA, USA) and 2 mM MgCl2 (all final concentrations). The reactions were terminated after two hours by the addition of 2 N HCl and the lipids extracted with 1:1 MetOH/Chloroform. Radio-labeled phosphatidyl-inositol-3-phosphate in the extracted organic fraction was quantified after the addition of Microscint O (PerkinElmer) using a TopCount 96 well plate scintillation counter (PerkinElmer). IC50 concentrations and inhibition curves were calculated using Prism 5 (GraphPad Software, La Jolla, CA).

[4] = tested on: Intraspleenic-injected HCT116 liver and lung metastases; assay: Intraspleenic tumor model (metastasis); type: in vivo, mice; conditions: 150 mg/kg IP daily, three weeks
Experimental: Intraspleenic-injected HCT116 liver and lung metastases in NOD.Cg-Prkdcscid Il2rgtm1Wjl/SzJ mice (Jackson Laboratory, Bar Harbor, ME, USA) were generated as described in Erikson et. al.. J-series compounds were solubilized in 1:1 DMSO/Cremophor EL (Sigma-Aldrich) and diluted 2.3-fold in water to a final concentration of 7.5 mg/ml. 400 μl of this formulation (150 mg/kg) was injected intraperitoneally (IP) once a day for three weeks, beginning the third day post-surgery. Mice were sacrificed after the treatment and the liver, lungs, and spleen sampled. DNA was extracted from organs with the DNeasy Blood & Tissue Kit (Qiagen). The qPCR assay used for quantification of human DNA in mouse organs has been described. All mouse protocols were designed in accordance with the NIH Guide for the Care and Use of Laboratory Animals and approved by the Institutional Animal Care and Use Committee.

T3 sequence (P42338 whole entry): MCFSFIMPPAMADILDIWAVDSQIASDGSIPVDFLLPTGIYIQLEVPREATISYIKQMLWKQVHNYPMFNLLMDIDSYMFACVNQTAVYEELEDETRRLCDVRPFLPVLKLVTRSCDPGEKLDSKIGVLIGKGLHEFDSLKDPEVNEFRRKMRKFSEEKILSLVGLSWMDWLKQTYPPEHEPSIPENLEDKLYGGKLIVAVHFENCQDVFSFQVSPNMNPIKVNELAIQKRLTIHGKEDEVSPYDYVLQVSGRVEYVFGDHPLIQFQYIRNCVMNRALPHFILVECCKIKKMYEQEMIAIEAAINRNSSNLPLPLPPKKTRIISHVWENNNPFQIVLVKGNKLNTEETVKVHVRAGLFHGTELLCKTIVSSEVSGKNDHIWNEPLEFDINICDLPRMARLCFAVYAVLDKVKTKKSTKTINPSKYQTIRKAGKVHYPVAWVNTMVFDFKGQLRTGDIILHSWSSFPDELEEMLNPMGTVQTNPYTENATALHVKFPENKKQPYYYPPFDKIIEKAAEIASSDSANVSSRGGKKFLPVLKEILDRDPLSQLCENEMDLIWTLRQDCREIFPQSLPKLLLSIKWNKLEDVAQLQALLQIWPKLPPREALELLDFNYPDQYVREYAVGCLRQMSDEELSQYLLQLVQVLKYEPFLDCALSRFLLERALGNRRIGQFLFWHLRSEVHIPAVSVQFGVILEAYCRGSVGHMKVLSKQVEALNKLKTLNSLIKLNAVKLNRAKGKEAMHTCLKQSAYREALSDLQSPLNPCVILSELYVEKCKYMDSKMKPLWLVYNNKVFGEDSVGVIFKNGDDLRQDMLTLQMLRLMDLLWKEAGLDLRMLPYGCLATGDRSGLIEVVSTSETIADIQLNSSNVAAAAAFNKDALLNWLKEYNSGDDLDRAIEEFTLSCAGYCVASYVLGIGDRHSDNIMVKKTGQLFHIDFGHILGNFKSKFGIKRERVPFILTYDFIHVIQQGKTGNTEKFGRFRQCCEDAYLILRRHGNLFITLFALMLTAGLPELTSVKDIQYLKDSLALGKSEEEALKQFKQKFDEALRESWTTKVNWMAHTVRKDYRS
T3 sequence (P27986 322-600 partner limits assumed): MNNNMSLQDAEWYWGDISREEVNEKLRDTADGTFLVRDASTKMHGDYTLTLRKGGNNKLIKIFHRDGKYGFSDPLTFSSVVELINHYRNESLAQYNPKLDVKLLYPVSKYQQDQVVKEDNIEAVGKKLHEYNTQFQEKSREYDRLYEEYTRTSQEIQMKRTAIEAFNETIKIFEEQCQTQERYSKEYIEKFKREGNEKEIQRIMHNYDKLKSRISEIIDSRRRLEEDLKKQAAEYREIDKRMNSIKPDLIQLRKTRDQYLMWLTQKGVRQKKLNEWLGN
T1 sequence (P42336 whole entry): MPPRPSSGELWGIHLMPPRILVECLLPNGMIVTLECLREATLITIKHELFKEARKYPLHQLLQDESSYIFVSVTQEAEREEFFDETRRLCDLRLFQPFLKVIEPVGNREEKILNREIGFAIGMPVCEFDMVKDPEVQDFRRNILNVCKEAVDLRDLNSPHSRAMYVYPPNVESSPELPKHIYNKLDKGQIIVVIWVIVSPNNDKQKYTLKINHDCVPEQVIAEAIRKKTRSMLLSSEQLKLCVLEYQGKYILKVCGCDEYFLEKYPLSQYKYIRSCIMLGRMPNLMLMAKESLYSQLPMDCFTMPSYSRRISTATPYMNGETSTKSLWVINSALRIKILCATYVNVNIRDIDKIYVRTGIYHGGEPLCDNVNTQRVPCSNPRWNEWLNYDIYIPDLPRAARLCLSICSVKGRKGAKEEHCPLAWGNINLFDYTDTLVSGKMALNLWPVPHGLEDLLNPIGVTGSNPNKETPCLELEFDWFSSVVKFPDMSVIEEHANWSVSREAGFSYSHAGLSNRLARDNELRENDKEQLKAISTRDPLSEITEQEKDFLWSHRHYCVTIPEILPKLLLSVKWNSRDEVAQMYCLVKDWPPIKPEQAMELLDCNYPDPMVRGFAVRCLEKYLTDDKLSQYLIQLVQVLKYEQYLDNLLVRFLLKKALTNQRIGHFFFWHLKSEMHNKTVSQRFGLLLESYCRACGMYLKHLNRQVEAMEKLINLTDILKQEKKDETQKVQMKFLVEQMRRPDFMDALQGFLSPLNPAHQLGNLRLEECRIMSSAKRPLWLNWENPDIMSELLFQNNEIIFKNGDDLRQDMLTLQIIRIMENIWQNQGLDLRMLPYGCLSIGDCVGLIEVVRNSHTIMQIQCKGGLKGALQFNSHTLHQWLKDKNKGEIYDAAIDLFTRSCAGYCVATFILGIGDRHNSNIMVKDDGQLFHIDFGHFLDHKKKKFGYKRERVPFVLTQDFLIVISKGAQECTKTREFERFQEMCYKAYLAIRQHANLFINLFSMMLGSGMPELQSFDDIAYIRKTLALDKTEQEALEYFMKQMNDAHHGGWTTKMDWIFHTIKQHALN
T1 sequence (P27986 322-600 partner limits assumed): as the sequence (P27986 322-600 partner limits assumed) above

- IC50 ([1]; 10 μM ATP, two hours): 11 nM
- increase of inhibitory activity for PI3Kα ([1]; compared to J32): 1.4 fold
- inhibition of mTOR with an IC50 of 11 nM or lower [2]: not mTOR
- IC50 ([3]; 10 μM ATP, two hours): 270 nM
- selectivity against PI3Kβ ([3]; relative to PI3Kα): > 20 fold
Structure (SMILES): CCN(/N=C/c1cnc2ccc(Br)cn12)S(=O)(=O)c1cc([N+](=O)[O-])c(NC(=O)C(F)(F)F)cc1C [J124]
- metastatic lesions in the lungs [4]: no lesions
- metastatic foci in the liver (histopathology) ([4]; compared to vehicle): few, if any, metastatic foci
- reduction in primary tumor burden in the spleen (real-time PCR) ([4]; compared to vehicle): ~ 50%
- reduction of metastatic liver burden (real-time PCR) ([4]; compared to vehicle): 13 fold
